From ChEMBL document CHEMBL1909046, “DrugMatrix in vitro pharmacology data”

Assays:
[1] = biological target: Beta-2 adrenergic receptor (Homo sapiens, UniProt P07550); test: DRUGMATRIX: Adrenergic beta2 radioligand binding (ligand: [3H] CGP-12177); format: cell membranes, CHO, Membrane; details: cho; Not Active = under 50% inhibition at 10 µM
[2] = biological target: T1, Type-2 angiotensin II receptor (Homo sapiens, UniProt P50052); format: cell-based; details: cho-k1; note: in other assays of this panel Not Active means under 50% inhibition at 10 µM
T1 sequence (P50052 whole entry): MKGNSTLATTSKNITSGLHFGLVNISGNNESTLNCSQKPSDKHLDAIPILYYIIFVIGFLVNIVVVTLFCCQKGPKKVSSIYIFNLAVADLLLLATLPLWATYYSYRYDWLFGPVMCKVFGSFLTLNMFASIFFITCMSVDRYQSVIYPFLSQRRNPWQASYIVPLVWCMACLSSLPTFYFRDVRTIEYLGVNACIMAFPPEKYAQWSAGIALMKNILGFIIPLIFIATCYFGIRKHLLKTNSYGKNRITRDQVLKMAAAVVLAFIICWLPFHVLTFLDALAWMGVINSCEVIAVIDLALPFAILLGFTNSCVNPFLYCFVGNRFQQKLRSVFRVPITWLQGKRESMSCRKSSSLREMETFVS

[3] = DRUGMATRIX: Atrial Natriuretic Factor (ANF) radioligand binding (ligand: [125I] ANF (rat)); format: cell membranes, Cavia porcellus, Dunkin-Hartley, Adrenal gland, Membrane; details: Not Active = under 50% inhibition at 10 µM
Calcitonin receptor = biological target: T2, Calcitonin receptor (Homo sapiens, UniProt P30988); format: cell membranes, Membrane; details: t47d; note: in other assays of this panel Not Active means under 50% inhibition at 10 µM
T2 sequence (P30988 whole entry): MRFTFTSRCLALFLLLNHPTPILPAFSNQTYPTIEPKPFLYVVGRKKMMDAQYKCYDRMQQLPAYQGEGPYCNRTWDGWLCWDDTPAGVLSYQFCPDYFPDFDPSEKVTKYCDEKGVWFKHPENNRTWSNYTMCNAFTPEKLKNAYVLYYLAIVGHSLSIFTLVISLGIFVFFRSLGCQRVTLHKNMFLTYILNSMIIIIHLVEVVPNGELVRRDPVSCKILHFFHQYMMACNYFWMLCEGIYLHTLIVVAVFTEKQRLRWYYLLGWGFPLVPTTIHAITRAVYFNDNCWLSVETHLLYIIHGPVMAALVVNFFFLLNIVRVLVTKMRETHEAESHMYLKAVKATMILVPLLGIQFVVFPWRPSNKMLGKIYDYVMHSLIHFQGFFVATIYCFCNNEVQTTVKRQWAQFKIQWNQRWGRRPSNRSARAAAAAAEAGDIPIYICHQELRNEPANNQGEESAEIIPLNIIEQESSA

Insulin receptor = Insulin receptor (Rattus norvegicus, UniProt P15127); format: cell membranes, Wistar, Liver, Membrane; note: in other assays of this panel Not Active means under 50% inhibition at 10 µM
[4] = biological target: T3, Angiotensin-converting enzyme (Oryctolagus cuniculus, UniProt P12822); test: biochemical; format: tissue-based, Lung;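 note: enzymatic inhibition of angiotensin-converting enzyme measured with FAPGG as the substrate; in other assays of this panel Not Active means under 50% inhibition at 10 µM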
T3 sequence (P12822 whole entry): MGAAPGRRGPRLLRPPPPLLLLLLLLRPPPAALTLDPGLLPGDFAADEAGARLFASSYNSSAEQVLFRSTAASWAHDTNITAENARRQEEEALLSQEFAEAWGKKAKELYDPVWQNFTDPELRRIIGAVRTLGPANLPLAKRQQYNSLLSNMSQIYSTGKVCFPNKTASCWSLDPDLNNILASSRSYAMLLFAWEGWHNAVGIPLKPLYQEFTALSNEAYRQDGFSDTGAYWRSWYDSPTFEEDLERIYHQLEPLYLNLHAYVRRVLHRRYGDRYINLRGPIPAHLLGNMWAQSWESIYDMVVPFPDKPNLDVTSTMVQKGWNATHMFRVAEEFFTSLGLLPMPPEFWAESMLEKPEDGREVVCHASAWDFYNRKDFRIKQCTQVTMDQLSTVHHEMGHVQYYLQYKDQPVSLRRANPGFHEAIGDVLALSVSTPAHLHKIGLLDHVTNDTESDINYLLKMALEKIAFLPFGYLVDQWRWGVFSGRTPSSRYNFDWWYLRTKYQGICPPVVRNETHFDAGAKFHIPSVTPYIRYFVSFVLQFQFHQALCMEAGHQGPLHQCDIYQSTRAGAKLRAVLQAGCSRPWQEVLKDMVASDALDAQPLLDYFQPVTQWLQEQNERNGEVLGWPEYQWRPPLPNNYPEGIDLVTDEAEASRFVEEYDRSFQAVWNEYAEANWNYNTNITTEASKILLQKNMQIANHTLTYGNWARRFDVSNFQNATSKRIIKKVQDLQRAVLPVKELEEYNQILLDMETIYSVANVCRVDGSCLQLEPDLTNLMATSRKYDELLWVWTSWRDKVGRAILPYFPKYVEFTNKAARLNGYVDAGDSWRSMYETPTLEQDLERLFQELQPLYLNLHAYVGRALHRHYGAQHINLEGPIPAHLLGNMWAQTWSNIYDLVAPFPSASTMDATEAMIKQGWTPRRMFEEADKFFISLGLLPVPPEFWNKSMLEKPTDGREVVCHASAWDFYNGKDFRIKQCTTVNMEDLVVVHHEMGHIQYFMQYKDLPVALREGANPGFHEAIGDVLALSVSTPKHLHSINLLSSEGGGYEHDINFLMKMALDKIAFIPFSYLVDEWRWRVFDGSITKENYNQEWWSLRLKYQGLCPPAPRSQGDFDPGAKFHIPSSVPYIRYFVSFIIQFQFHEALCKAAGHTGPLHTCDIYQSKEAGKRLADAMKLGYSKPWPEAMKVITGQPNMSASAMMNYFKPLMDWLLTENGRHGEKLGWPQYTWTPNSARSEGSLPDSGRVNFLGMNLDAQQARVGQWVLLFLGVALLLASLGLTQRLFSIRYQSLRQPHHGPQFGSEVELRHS

Estrogen receptor = biological target: T4, Estrogen receptor (Homo sapiens, UniProt P03372); details: sf9; note: in other assays of this panel Not Active means under 50% inhibition at 10 µM
T4 sequence (P03372 whole entry): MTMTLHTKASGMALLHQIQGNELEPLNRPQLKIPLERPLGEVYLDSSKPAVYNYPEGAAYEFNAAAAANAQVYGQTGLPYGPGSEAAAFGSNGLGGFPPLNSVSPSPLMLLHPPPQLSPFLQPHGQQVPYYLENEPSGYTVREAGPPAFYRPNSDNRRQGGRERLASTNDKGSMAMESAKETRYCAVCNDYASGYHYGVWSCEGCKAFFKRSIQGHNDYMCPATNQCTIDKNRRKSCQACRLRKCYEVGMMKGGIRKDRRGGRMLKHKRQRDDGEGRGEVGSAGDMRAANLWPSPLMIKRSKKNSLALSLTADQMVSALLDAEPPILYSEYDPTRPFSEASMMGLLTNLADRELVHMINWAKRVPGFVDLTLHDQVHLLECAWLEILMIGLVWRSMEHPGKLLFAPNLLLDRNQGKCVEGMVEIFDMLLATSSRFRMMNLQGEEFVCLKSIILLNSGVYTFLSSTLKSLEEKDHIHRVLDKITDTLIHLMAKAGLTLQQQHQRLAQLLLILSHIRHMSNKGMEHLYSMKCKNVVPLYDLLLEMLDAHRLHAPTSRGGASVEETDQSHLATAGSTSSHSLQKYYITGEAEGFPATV

Chain of Insulin receptor (P15127 27-759 limits assumed): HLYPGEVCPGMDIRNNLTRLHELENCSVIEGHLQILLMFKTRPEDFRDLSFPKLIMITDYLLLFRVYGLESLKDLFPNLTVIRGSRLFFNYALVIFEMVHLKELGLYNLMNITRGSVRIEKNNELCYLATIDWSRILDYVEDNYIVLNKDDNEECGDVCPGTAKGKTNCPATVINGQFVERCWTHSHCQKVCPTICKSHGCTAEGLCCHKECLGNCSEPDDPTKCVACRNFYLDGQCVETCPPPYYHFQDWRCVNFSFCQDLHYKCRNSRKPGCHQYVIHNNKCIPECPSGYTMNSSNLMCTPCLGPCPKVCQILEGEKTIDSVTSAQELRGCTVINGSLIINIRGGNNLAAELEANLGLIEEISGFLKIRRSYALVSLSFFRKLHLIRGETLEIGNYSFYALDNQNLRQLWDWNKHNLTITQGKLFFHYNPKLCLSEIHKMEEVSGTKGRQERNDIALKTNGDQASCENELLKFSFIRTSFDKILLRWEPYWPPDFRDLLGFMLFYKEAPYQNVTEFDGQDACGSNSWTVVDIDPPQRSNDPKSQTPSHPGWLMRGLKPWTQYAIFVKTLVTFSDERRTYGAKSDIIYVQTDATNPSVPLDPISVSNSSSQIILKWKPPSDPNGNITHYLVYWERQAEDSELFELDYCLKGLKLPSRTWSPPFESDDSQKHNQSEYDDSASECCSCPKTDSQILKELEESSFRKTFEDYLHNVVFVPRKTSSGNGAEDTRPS
Chain of Insulin receptor (P15127 764-1383 limits assumed): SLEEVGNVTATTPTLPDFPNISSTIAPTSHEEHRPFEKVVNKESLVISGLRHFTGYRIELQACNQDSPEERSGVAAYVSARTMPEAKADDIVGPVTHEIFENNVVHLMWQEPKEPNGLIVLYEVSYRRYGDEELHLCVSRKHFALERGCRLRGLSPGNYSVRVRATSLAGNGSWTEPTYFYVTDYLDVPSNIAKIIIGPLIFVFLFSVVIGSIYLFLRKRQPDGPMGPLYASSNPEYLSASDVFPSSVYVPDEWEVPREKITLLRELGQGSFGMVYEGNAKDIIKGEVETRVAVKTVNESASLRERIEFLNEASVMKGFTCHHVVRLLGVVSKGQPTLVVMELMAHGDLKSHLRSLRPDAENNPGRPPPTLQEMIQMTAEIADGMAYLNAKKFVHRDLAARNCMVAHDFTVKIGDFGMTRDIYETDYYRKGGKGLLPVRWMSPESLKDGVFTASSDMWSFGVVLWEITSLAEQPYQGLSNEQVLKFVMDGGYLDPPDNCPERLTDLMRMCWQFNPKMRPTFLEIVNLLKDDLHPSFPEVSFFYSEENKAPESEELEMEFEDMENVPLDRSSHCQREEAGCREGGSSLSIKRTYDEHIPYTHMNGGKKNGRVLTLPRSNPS

O=C(Nc1ccc(Cl)c(Cl)c1)c1cc(Cl)cc(Cl)c1O [3,3',4',5-TETRACHLOROSALICYLANILIDE]
Not Active: IC50 [1] | IC50 [2] | IC50 [3] | Ki [3] | IC50 (Calcitonin receptor) | IC50 (Insulin receptor) | IC50 [4] | IC50 (Estrogen receptor)

COC(=O)C[C@](O)(CCC(C)(C)O)C(=O)O[C@@H]1C(OC)=C[C@]23CCCN2CCc2cc4c(cc2[C@H]13)OCO4 [HARRINGTONINE]
Not Active: IC50 [1] | IC50 [2] | IC50 [3] | Ki [3] | IC50 (Calcitonin receptor) | IC50 (Insulin receptor) | IC50 [4] | IC50 (Estrogen receptor)

COc1cc(NC(C)CCCN)c2ncccc2c1 (stereo not drawn) [PRIMAQUINE]
Not Active: IC50 [1] | IC50 [2] | IC50 [3] | Ki [3] | IC50 (Calcitonin receptor) | IC50 (Insulin receptor) | IC50 [4] | IC50 (Estrogen receptor)

CARBOXYMETHYLCELLULOSE
Not Active: IC50 [1] | Ki [1] | IC50 [2] | Ki [2] | IC50 [3] | Ki [3] | IC50 (Calcitonin receptor) | Ki (Calcitonin receptor) | IC50 (Insulin receptor) | Ki (Insulin receptor) | IC50 [4] | Ki [4] | IC50 (Estrogen receptor) | Ki (Estrogen receptor)

CC(N)Cc1c[nH]c2ccc(OCc3cccs3)cc12 (stereo not drawn) [BW-723C86]
Not Active: IC50 [1] | IC50 [2] | IC50 [3] | Ki [3] | IC50 (Calcitonin receptor) | IC50 (Insulin receptor) | IC50 [4] | IC50 (Estrogen receptor)

c1ccc2c(c1)Nc1ccccc1S2 [PHENOTHIAZINE]
Not Active: IC50 [1] | IC50 [2] | IC50 [3] | Ki [3] | IC50 (Calcitonin receptor) | IC50 (Insulin receptor) | IC50 [4] | IC50 (Estrogen receptor)

ClC1=C(Cl)[C@]2(Cl)[C@@H]3[C@@H]4C[C@@H]([C@H]5O[C@@H]45)[C@@H]3[C@@]1(Cl)C2(Cl)Cl [DIELDRIN]
Not Active: IC50 [1] | IC50 [2] | IC50 [3] | Ki [3] | IC50 (Calcitonin receptor) | IC50 (Insulin receptor) | IC50 [4] | IC50 (Estrogen receptor)

CN(Cc1cc(Br)cc(Br)c1N)C1CCCCC1 [BROMHEXINE]
Not Active: IC50 [1] | IC50 [2] | IC50 [3] | Ki [3] | IC50 (Calcitonin receptor) | IC50 (Insulin receptor) | IC50 [4] | IC50 (Estrogen receptor)

c1ccc(Cn2ccnc2)cc1
Not Active: IC50 [1] | IC50 [2] | IC50 [3] | Ki [3] | IC50 (Calcitonin receptor) | IC50 (Insulin receptor) | IC50 [4] | IC50 (Estrogen receptor)

CCO [ALCOHOL]
Not Active: IC50 [1] | IC50 [2] | IC50 [3] | Ki [3] | IC50 (Calcitonin receptor) | IC50 (Insulin receptor) | IC50 [4] | IC50 (Estrogen receptor)

CCN1CCN(C(=O)N[C@@H](C(=O)N[C@@H]2C(=O)N3[C@@H]2SC(C)(C)[C@@H]3C(=O)O)c2ccccc2)C(=O)C1=O [PIPERACILLIN]
Not Active: IC50 [1] | IC50 [2] | IC50 [3] | Ki [3] | IC50 (Calcitonin receptor) | IC50 (Insulin receptor) | IC50 [4] | IC50 (Estrogen receptor)

NC(=O)NC(=O)Cc1ccccc1 [PHENACEMIDE]
Not Active: IC50 [1] | IC50 [2] | IC50 [3] | Ki [3] | IC50 (Calcitonin receptor) | IC50 (Insulin receptor) | IC50 [4] | IC50 (Estrogen receptor)

C[N+](C)(C)CCOP(=O)([O-])OC[C@H](O)CO
Not Active: IC50 [1] | IC50 [2] | IC50 [3] | Ki [3] | IC50 (Calcitonin receptor) | IC50 (Insulin receptor) | IC50 [4] | IC50 (Estrogen receptor)

Clc1cc(Cl)c(OCC#CI)cc1Cl [HALOPROGIN]
Not Active: IC50 [1] | IC50 [2] | IC50 [3] | Ki [3] | IC50 (Calcitonin receptor) | IC50 (Insulin receptor) | IC50 [4] | IC50 (Estrogen receptor)
